From patent US11981711B2, “Methods of treating spinal cord injury using a chondroitin sulfate proteoglycan (CSPG) reduction peptide (CRP) comprising a cell membrane penetrating domain, a CSPG binding domain, and a lysosome targeting domain” (The Cleveland Clinic Foundation, priority 2017, dated 2024)

Tests used:
[1] = test system: chondroitin sulfate proteoglycan (CSPG); assay: CSPG expression around the spinal cord lesion after contusive SCI, treatment from one day after SCI; assay type: in vivo, rat; settings: two weeks after contusive SCI; treatment starting one day after SCI; vs vehicle
From the text: (§1) In this Example, the CRP has been applied in a preclinical rat model to test the efficacy of the treatment of spinal cord injury (SCI). The injury was made at thoracic 8 level using contusive injury device. The contusive SCI is the most clinical relevance among all experimental SCI models. We have assessed both motor and bladder control as functional outcomes and analyzed anatomical evidences to support these findings. We also selected sub-acute phase (ONE-DAY after SCI) and chronic phase (TWO-MONTHs after SCI) to start our treatment.
Furthermore CRP can efficiently improve locomotion and bladder electromyography (EMG) activities and voiding patterns after SCI.

spinal cord injury (SCI) [2] = assay: Locomotion (BBB 21-point score) and gait after chronic SCI, treatment from two months after SCI; assay type: in vivo, rat
From the text: Basso, Beattie, and Bresnahan (BBB) 21-point scoring test is used as the locomotion assessment after SCI. SCI causes significant deficits on locomotion function as indicated by the significant drop of BBB scores from 21 of the normal rats. […] However, ISP treatment slightly decreases BBB scores from 11.667±0.211 (two months after SCI) to 11.00±0.577 (two months plus 42 days after SCI) (A).
as §1
The above were followed up with studies to evaluate the treatment effects of CRP in chronic SCI. The chronic SCI is not only way more challenge to be repaired but also is the clinical status of the majority of patients with SCI.

spinal cord injury (SCI) [3] = settings: cited from earlier work
STAT3 = STAT3 activation (phospho-STAT3 Tyr705) in spinal cord after SCI, SRP treatment; assay type: in vivo, rat; settings: 7 days after SCI; once per day beginning one day after SCI
From the text: (§2) Graphs represent mean±SEM of five samples per group for the ratios of SOCS3 to actin (B) and p-STAT3 to STAT3 (C). +p<0.05, ++p<0.01, and +++p<0.001 compared to normal animals, and *p<0.05 and ***p<0.001 compared to scrambled peptide animals (two way ANOVA with Bonferroni multiple analyses).

SOCS1 = target: T1, SOCS1 (Rattus norvegicus, UniProt Q9QX78); assay: SOCS1 protein level in spinal cord after SCI, SRP treatment; assay type: in vivo; settings: 7 days after SCI; once per day beginning one day after SCI
T1 construct: from tissue; host or cells: rat spinal cord
T1 sequence (Q9QX78 1-212): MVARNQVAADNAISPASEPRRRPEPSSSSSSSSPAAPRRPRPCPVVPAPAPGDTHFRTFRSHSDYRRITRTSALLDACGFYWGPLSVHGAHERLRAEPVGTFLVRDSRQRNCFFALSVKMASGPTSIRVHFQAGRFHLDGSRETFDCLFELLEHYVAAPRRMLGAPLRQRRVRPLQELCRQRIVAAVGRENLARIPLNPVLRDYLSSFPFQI

spinal cord injury (SCI) [4] = assay: BBB open field locomotion test after T8 contusive SCI, SRP treatment; assay type: in vivo, rat; settings: subcutaneous daily for one month beginning one day after SCI; vs scrambled peptide; entire observation period
From the text: (§3) In this Example, the SRP has been applied in a preclinical rat model to test the efficacy of the treatment of spinal cord injury (SCI) in a manner similar to Example 1 above for CRP.
Animals were subcutaneously injected with SRP daily for one month beginning one day after SCI and assessed by the BBB open field locomotion test to evaluate hind limb motor function at the designated time points. […] Values represent mean±SEM.

spinal cord injury (SCI) [5] = assay: Urodynamic analyses (CMG, EUS EMG) after T8 contusive SCI, SRP treatment; assay type: in vivo, rat; settings: 3 months post-SCI
Description: as §3
Animals were treated daily with SRP for one month, beginning one day after SCI. Urodynamic analyses were conducted 3 months post-SCI. […] EUS EMG recording were conducted 3 months post-SCI.

[6] = test system: TBK1 and mitophagy adaptors; assay: TBK1 and mitophagy adaptors in spinal cord after SCI, SRP treatment; assay type: in vivo, rat; settings: vs scrambled peptide
From the text: (A). Graphs represented mean±SEM of six samples per group for the % to GAPDH (B). *p<0.05, **p<0.01 and ***p<0.001 compared to scrambled peptide animals (two-tailed t test, n=3 per group).

arginase 1, iNOS, TNF-α = assay: qRT-PCR of markers for pro- vs. anti-inflammatory macrophages in spinal cord segments caudal to injury; assay type: in vivo, rat; settings: vs scrambled peptide
Description: Rats were treated once per day beginning one day after SCI with SRP or scrambled peptide (scr) and mRNA was then harvested and analyzed by qRT-PCR. […] C.

[7] = test system: ED1+macrophages/microglia; assay: Double immunolabeling of ED1 and GFAP in spinal cord after SCI, SRP treatment; assay type: in vivo, rat; settings: three months post-SCI, vs scrambled peptide
Description: SRP treatment beginning one day after SCI was administered for 30 consecutive days and then spinal cords were harvested three months post-SCI for double immunolabeling of ED1 and GFAP.

SOCS3 [8] = target: T2, SOCS3 (Rattus norvegicus, UniProt O88583); assay: SOCS3 level in sciatic nerve after sciatic nerve transection, SRP treatment; assay type: in vivo; set-up: from tissue; host or cells: sciatic nerve; settings: once per day for 4 consecutive days beginning immediately after transection; vs scrambled peptide
T2 sequence (O88583 1-225): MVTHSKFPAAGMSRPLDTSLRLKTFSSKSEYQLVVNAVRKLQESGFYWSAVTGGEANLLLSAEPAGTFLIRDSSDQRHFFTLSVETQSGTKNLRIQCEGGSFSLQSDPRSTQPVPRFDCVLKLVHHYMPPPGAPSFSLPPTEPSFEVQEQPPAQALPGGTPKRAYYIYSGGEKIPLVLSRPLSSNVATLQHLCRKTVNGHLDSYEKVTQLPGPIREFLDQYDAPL

SOCS3 [9] = target: T2, SOCS3; assay: SOCS3 protein level in spinal cord after SCI, SRP treatment; assay type: in vivo; set-up: from tissue; host or cells: rat spinal cord (epicenter and caudal segments); settings: 7 days after SCI; once per day beginning one day after SCI; vs scrambled peptide
From the text: as §3, §2

[10] = once per day beginning one day after SCI

intracellular sigma peptide [ISP, reference compound]
CSPG in lesion epicenter and adjacent tissue [1]: does not decrease CSPG | BBB score (spinal cord injury (SCI) [2]; two months after SCI (start of treatment)): 11.667±0.211 | BBB score (spinal cord injury (SCI) [2]; two months plus 42 days after SCI, treatment starting two months after contusive SCI): 11.00±0.577 | functional recovery after SCI (spinal cord injury (SCI) [3]; applied immediately after SCI in rats): minor effects on promoting functional recovery | effect on chronic SCI (spinal cord injury (SCI) [3]; applied two-month after SCI): no effects on chronic SCI | effect on CSPG in vivo (spinal cord injury (SCI) [3]; background statement): no effects on CSPG

YGRKKRRQRRR-VQpYSTVVHS-KFERQKILDQRFFE [SRP]
phospho-STAT3 Tyr705 (p-STAT3 to STAT3) (STAT3): significant activation of STAT3 | SOCS1 level (SOCS1): not significantly altered | hind limb locomotion (BBB) (spinal cord injury (SCI) [4]): significant improvement in hind limb locomotion | bladder hyperactivity (CMG) (spinal cord injury (SCI) [5]; daily for one month beginning one day after SCI): significantly reduced bladder hyperactivity | EUS EMG bursting activity during the void period (spinal cord injury (SCI) [5]; vs scrambled peptide): improvement in bursting activity | non-voiding contraction amplitude (spinal cord injury (SCI) [5]; vs scrambled peptide): significantly reduced | number of non-voiding contractions (spinal cord injury (SCI) [5]; vs scrambled peptide): significantly reduced | residual volume (spinal cord injury (SCI) [5]; vs scrambled peptide): significantly reduced | TBK1 protein level [6, 10]: significantly increased | optineurin protein level [6, 10]: significantly increased | phospho-TBK1 Ser172 (p-TBK1) [6]: significant activation of TBK1 and p62 | phosphor-p62 Ser403 (p-p62) [6]: significant activation of TBK1 and p62 | arginase 1 expression (mRNA) (arginase 1, iNOS, TNF-α; 7 and 14 days post-SCI): increased | iNOS expression (mRNA) (arginase 1, iNOS, TNF-α; 7 and 14 days post-SCI): decreased | TNF-α expression (mRNA) (arginase 1, iNOS, TNF-α; 7 days post-SCI): decreased | SCI-increased ED1+macrophages/microglia ([7]; treatment for 30 consecutive days beginning one day after SCI): blocked SCI-induced upregulation of ED1+macrophages | GFAP+tissues surrounding the lesion epicenter [7]: preserved more GFAP+tissues | sciatic nerve transection-upregulated SOCS3 (SOCS3 [8]): significantly reduced | SCI-upregulated SOCS3 (ratio of SOCS3 to actin) (SOCS3 [9]): significantly reduced
